Results taken from the supplement of paper PMC13207355.
Counter-ions that a name gives are not always drawn.

What was measured:
Conditions in all cases: exposure time: 72 h
[1] = tested on: E13 (patient-derived glioblastoma stem cells of classical subtype); experiment: surviving fraction (nuclei count normalised to DMSO); higher = more cells surviving (less toxic)
[2] = tested on: E21 (patient-derived glioblastoma stem cells of mesenchymal subtype); experiment: as above
[3] = tested on: E28 (patient-derived glioblastoma stem cells of classical subtype); experiment: as above
[4] = tested on: E31 (patient-derived glioblastoma stem cells of proneural subtype); experiment: as above
[5] = tested on: E34 (patient-derived glioblastoma stem cells of proneural subtype); experiment: as above
[6] = tested on: E57 (patient-derived glioblastoma stem cells of mesenchymal subtype); experiment: as above
[7] = tested on: FT3469 (normal neural stem cell line); experiment: as above
[8] = tested on: E13; experiment: phenotypic distance (Euclidean, principal components) from DMSO controls (arbitrary units); higher = stronger morphological change
[9] = tested on: E21; experiment: as above
[10] = tested on: E28; experiment: as above
[11] = tested on: E31; experiment: as above
[12] = tested on: E34; experiment: as above
[13] = tested on: E57; experiment: as above
[14] = tested on: FT3469; experiment: as above
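Wherever phenotypic distance (Euclidean, principal components) from DMSO controls is given: cell Painting imaging in 384-well plates, CellProfiler features reduced to at least 20 principal components, Euclidean distance versus same-plate DMSO vehicle wells (0.1% v/v), median over six images per well.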
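Wherever surviving fraction (nuclei count normalised to DMSO) is given: nuclei counted by high-content imaging of Hoechst-stained cells in laminin-coated 384-well plates, relative to 0.1% DMSO vehicle wells, with staurosporine as cell-death control.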

OC(c1cc(C(F)(F)F)nc2c(C(F)(F)F)cccc12)C1CCCCN1 (stereo unspecified) [Mefloquine hydrochloride]
Conditions	phenotypic distance	surviving fraction
[1], 4.1 nM	–	0.953
[1], 12.3 nM	–	0.908
[1], 37 nM	–	1.09
[1], 111.1 nM	–	1.03
[1], 333.3 nM	–	0.98
[1], 1000 nM	–	0.992
[1], 3000 nM	–	0.842
[2], 4.1 nM	–	1.11
[2], 12.3 nM	–	0.951
[2], 37 nM	–	0.98
[2], 111.1 nM	–	0.983
[2], 333.3 nM	–	1.07
[2], 1000 nM	–	1.05
[2], 3000 nM	–	1.07
[3], 4.1 nM	–	1.12
[3], 12.3 nM	–	1
[3], 37 nM	–	1.22
[3], 111.1 nM	–	1.14
[3], 333.3 nM	–	1.23
[3], 1000 nM	–	1.21
[3], 3000 nM	–	1.12
[4], 4.1 nM	–	1.11
[4], 12.3 nM	–	0.942
[4], 37 nM	–	1.15
[4], 111.1 nM	–	0.922
[4], 333.3 nM	–	1.11
[4], 1000 nM	–	1.06
[4], 3000 nM	–	0.997
[5], 4.1 nM	–	1.1
[5], 12.3 nM	–	0.856
[5], 37 nM	–	1.06
[5], 111.1 nM	–	0.941
[5], 333.3 nM	–	1.14
[5], 1000 nM	–	0.908
[5], 3000 nM	–	1.02
[6], 4.1 nM	–	1.05
[6], 12.3 nM	–	1.05
[6], 37 nM	–	0.93
[6], 111.1 nM	–	0.987
[6], 333.3 nM	–	1.17
[6], 1000 nM	–	0.93
[6], 3000 nM	–	0.903
[7], 4.1 nM	–	1.13
[7], 12.3 nM	–	1.13
[7], 37 nM	–	0.975
[7], 111.1 nM	–	1.2
[7], 333.3 nM	–	1.07
[7], 1000 nM	–	1.02
[7], 3000 nM	–	0.875
[8], 4.1 nM	0.361	–
[8], 12.3 nM	0.509	–
[8], 37 nM	0.5	–
[8], 111.1 nM	1.43	–
[8], 333.3 nM	0.51	–
[8], 1000 nM	0.651	–
[8], 3000 nM	0.845	–
[9], 4.1 nM	0.776	–
[9], 12.3 nM	0.568	–
[9], 37 nM	0.797	–
[9], 111.1 nM	0.488	–
[9], 333.3 nM	0.618	–
[9], 1000 nM	0.511	–
[9], 3000 nM	1.05	–
[10], 4.1 nM	0.636	–
[10], 12.3 nM	0.53	–
[10], 37 nM	0.741	–
[10], 111.1 nM	0.677	–
[10], 333.3 nM	0.764	–
[10], 1000 nM	1.07	–
[10], 3000 nM	1.8	–
[11], 4.1 nM	0.433	–
[11], 12.3 nM	0.421	–
[11], 37 nM	0.563	–
[11], 111.1 nM	0.539	–
[11], 333.3 nM	0.506	–
[11], 1000 nM	0.632	–
[11], 3000 nM	0.65	–
[12], 4.1 nM	0.892	–
[12], 12.3 nM	0.581	–
[12], 37 nM	0.73	–
[12], 111.1 nM	0.475	–
[12], 333.3 nM	0.804	–
[12], 1000 nM	0.787	–
[12], 3000 nM	0.828	–
[13], 4.1 nM	0.488	–
[13], 12.3 nM	0.813	–
[13], 37 nM	0.474	–
[13], 111.1 nM	0.652	–
[13], 333.3 nM	1.37	–
[13], 1000 nM	0.948	–
[13], 3000 nM	0.991	–
[14], 4.1 nM	0.882	–
[14], 12.3 nM	0.444	–
[14], 37 nM	0.675	–
[14], 111.1 nM	0.627	–
[14], 333.3 nM	0.598	–
[14], 1000 nM	0.423	–
[14], 3000 nM	1.16	–

CN(C(=O)CN(CCO)CC(=O)N(C)C(C)(C)Cc1ccccc1)C(C)(C)Cc1ccccc1 [Oxethazaine]
Conditions	phenotypic distance	surviving fraction
[1], 4.1 nM	–	1.09
[1], 12.3 nM	–	0.968
[1], 37 nM	–	0.928
[1], 111.1 nM	–	1.04
[1], 333.3 nM	–	1.07
[1], 1000 nM	–	0.99
[1], 3000 nM	–	0.951
[2], 4.1 nM	–	0.958
[2], 12.3 nM	–	1
[2], 37 nM	–	1.03
[2], 111.1 nM	–	0.955
[2], 333.3 nM	–	1.12
[2], 1000 nM	–	0.969
[2], 3000 nM	–	1.08
[3], 4.1 nM	–	1.08
[3], 12.3 nM	–	0.989
[3], 37 nM	–	1.05
[3], 111.1 nM	–	0.943
[3], 333.3 nM	–	1.15
[3], 1000 nM	–	1
[3], 3000 nM	–	1.16
[4], 4.1 nM	–	0.961
[4], 12.3 nM	–	0.975
[4], 37 nM	–	1.03
[4], 111.1 nM	–	0.93
[4], 333.3 nM	–	1.09
[4], 1000 nM	–	1.01
[4], 3000 nM	–	1.01
[5], 4.1 nM	–	1.02
[5], 12.3 nM	–	0.88
[5], 37 nM	–	1.05
[5], 111.1 nM	–	0.971
[5], 333.3 nM	–	1.19
[5], 1000 nM	–	1.2
[5], 3000 nM	–	0.914
[6], 4.1 nM	–	1.01
[6], 12.3 nM	–	0.936
[6], 37 nM	–	0.966
[6], 111.1 nM	–	0.964
[6], 333.3 nM	–	0.991
[6], 1000 nM	–	0.948
[6], 3000 nM	–	1
[7], 4.1 nM	–	0.961
[7], 12.3 nM	–	0.979
[7], 37 nM	–	1.02
[7], 111.1 nM	–	1.05
[7], 333.3 nM	–	0.978
[7], 1000 nM	–	1.1
[7], 3000 nM	–	0.933
[8], 4.1 nM	0.675	–
[8], 12.3 nM	0.799	–
[8], 37 nM	3.23	–
[8], 111.1 nM	0.762	–
[8], 333.3 nM	0.641	–
[8], 1000 nM	3.59	–
[8], 3000 nM	0.501	–
[9], 4.1 nM	1.27	–
[9], 12.3 nM	0.301	–
[9], 37 nM	0.673	–
[9], 111.1 nM	0.767	–
[9], 333.3 nM	0.702	–
[9], 1000 nM	0.599	–
[9], 3000 nM	0.942	–
[10], 4.1 nM	0.766	–
[10], 12.3 nM	0.639	–
[10], 37 nM	0.581	–
[10], 111.1 nM	0.521	–
[10], 333.3 nM	0.535	–
[10], 1000 nM	0.928	–
[10], 3000 nM	0.763	–
[11], 4.1 nM	1.19	–
[11], 12.3 nM	0.518	–
[11], 37 nM	0.559	–
[11], 111.1 nM	0.664	–
[11], 333.3 nM	0.743	–
[11], 1000 nM	0.675	–
[11], 3000 nM	1.16	–
[12], 4.1 nM	0.701	–
[12], 12.3 nM	0.608	–
[12], 37 nM	0.585	–
[12], 111.1 nM	0.716	–
[12], 333.3 nM	0.77	–
[12], 1000 nM	0.595	–
[12], 3000 nM	0.878	–
[13], 4.1 nM	0.467	–
[13], 12.3 nM	0.582	–
[13], 37 nM	0.373	–
[13], 111.1 nM	0.789	–
[13], 333.3 nM	0.553	–
[13], 1000 nM	0.494	–
[13], 3000 nM	1.79	–
[14], 4.1 nM	1.79	–
[14], 12.3 nM	0.53	–
[14], 37 nM	0.88	–
[14], 111.1 nM	0.534	–
[14], 333.3 nM	0.669	–
[14], 1000 nM	0.43	–
[14], 3000 nM	1.12	–
